Data: US20180221329A1, “CIS- AND TRANS-SUFFRUTICOSOL D AS THERAPEUTIC AGENTS” (MIDDLE TENNESSEE STATE UNIVERSITY, priority 2015, published 2018)

How the values were obtained:
Assay type in all cases: cell-based, human
[1] = system: A549-GFP cells; test: Cell motility assay (fluorescent bead track area); details: 18 h, medium with 10% FBS
Protocol: FIGS. 4A and 4B depict cell motility changes induced by cis- and trans-suffruticosol D in A549 cells. A549-GFP cells were seeded in 96-well plate with a monolayer of fluorescent beads. After treatment with cis- or trans-suffruticosol D for 18 h, individual cell movement was evaluated by measuring the fluorescent track area. Cells treated with serum free medium served as a negative control and cells treated with medium containing 10% serum served as a positive control.
Cell motility assay. A 96-well collagen plate (Corning, N.Y., USA) was coated with blue fluorescent beads (Life Technologies, Eugene, Oreg., USA) as follows. The beads were centrifuged for 1 min at 14,000 g and washed twice with PBS, then 75 μl beads were added to each well of the 96-well collagen plate and incubated for 1 h at 37° C. The cells were seeded on the lawn of fluorescent beads and the sizes of the tracks generated by migrating cells were measured. After the plate was washed 5 times with PBS, A549-GFP cells were seeded at 500 cells/well in the coated plate and incubated for 1 h at 37° C. Subsequently the cells were treated with different concentrations of cis- or trans-suffruticosol D in medium containing 10% FBS for 18 h. Cells treated with serum-free medium serve as the negative control and cells treated with medium containing 10% FBS serve as the positive control. Cell tracks were imaged using an Arrayscan VTI HCS reader (Thermo Scientific, Waltham, Mass., USA) and the data was analyzed by vHCS Scan software. The mean of the full track area per cell for the test compound and the controls was calculated.

[2] = system: apoptotic proteins in A549 cells; test: Apoptosis antibody array; details: 50 μM, 6 h
Protocol: F, Effect of cis- or trans-suffruticosol D on key regulatory proteins of apoptosis, Hsp60, Hsp70, survivin, and X-linked inhibitor of apoptosis protein (XIAP) (n=4).
Apoptosis antibody array. The Human Apoptosis Antibody Array Kit (RayBiotech, Inc., Norcross, Ga. USA) was used to evaluate apoptotic protein expression according to the manufacturer's instructions. A549 cells were plated at 8,000 cells/well intensity in a 96-well plate and then treated with cis or trans-suffruticosol D at a concentration of 50 μM for 6 h. The cells were lysed in lysis buffer with protease inhibitors. The cell lysates were concentrated using a protein concentration column (EMD Millipore, Billerica, Mass., USA) to a total protein concentration of 2 mg/ml. The samples were then diluted 10 fold with assay buffer and incubated with an array membrane for 2 h at room temperature, and washed with washing buffer five times. Subsequently, the cocktail of biotin-conjugated antibody mix was added to the membrane and incubated overnight at 4° C. The samples were then incubated with HRP-conjugated streptavidin for 2 h at room temperature and chemiluminescence substrate was used to detect the signal. Image Studio software (LI-COR Biotechnology) was used to quantify the intensity of each array dot and then normalized to the internal control.

[3] = system: A549 (lung carcinoma) cells; test: Cell proliferation assay (AlamarBlue), A549; details: for IC50: A549, 48 h, AlamarBlue; for Selectivity: A549 versus normal HMEC cells
Protocol: Cell culture. Four human cancer cell lines including A549 (lung carcinoma), BT20 (estrogen receptor-negative human breast adenocarcinoma), MCF-7 (estrogen receptor-positive human breast adenocarcinoma) and U2OS (human osteosarcoma) were purchased from American Type Culture Collection (ATCC). An A549 cell line that stably expresses Green Fluorescent Protein (GFP) was purchased from Cell BioLabs Inc. (San Diego, Calif., USA). A549, A549-GFP and BT20 cells were cultured in RPMI 1640 media (Sigma-Aldrich, St. Louis, Mo., USA), MCF7 cells were cultured in DMEM medium (ATCC, Manassas, Va., USA), and U20S cells were cultured in McCoy's 5A medium (ATCC, Manassas, Va., USA). As a control, HMEC cells (primary human mammary breast epithelial cells) were purchased from ATCC and cultured in McCoy's 5A medium. All medium contained 10% FBS (Sigma-Aldrich, St. Louis, Mo., USA) and 1% streptomycin and penicillin (Sigma-Aldrich, St. Louis, Mo., USA). These cells were incubated in a humid environment with 5% CO2 at 37° C.
Cell proliferation assay. The resazurin reduction reagent AlamarBlue (Invitrogen, Frederick, Md., USA) was used to evaluate the cytotoxicity of the compounds. Cells were plated at a density of 5×10^3 cells per well in 96-well microplates with 100 μl culture medium, and were allowed to attach for 16 h prior to treatment. Next, all the medium was replaced with medium containing the cis- or trans-suffruticosol D compounds at seven different concentrations: 320, 100, 32, 10, 3.2, 1.0, and 0.32 μM. The cells were placed in an incubator for 48 h at 37° C. Cells that were treated with medium-containing vehicle (1% DMSO) only serve as negative control. Subsequently, AlamarBlue solution was added to the medium and the cells were incubated in the CO2 incubator for 1 h. The fluorescent intensity change of the dye was measured at Ex 555 nm and Em 590 nm using a plate reader (Molecular Devices, Sunnyvale, Calif., USA). The cytotoxicity was examined by determining by IC50, the dose that inhibited 50% of cell growth, using GraphPad Prism software (GraphPad Software, La Jolla, Calif., USA).
Table 1. IC50 values of cis- and trans-suffruticosol D in selected cancer and normal cell lines. Cells were treated with various concentrations of cis- or trans-suffruticosol D for 48 h, and the viability of cells was evaluated with AlamarBlue dye.

[4] = system: A549 cells; test: Oxidative stress assay (ROS, DHE, HCS reader); details: 24 h
Protocol: FIGS. 3A and 3B depict induction of oxidative stress by cis- and trans-suffruticosol D in A549 cells. A549 cells were treated with various concentrations of cis- or trans-suffruticosol D for 24 h, then stained with Hoechst and dihydroethidium (DHE) dye. Cells treated with Doxorubicin served as a positive control, and cells treated with vehicle only served as a negative control. The reactive oxygen species (ROS) levels were measured by the fluorescent intensity of DHE that was converted to ethidium bromide.
Oxidative stress assay. The Hitkit oxidative stress kit (Thermo Scientific, Waltham, Mass., USA) was used to determine the generation of reactive oxygen species (ROS) according to the manufacturer's instructions. Briefly, A549 cells were treated with cis- or trans-suffruticosol D for 24 h, fixed with warm 37% formaldehyde and stained with Hoechst and dihydroethidium (DHE) dye for 30 min at 37° C. with 5% CO2. Doxorubicin (DOX) at 1 μM concentration was used as a positive control and cells treated with vehicle only were used as negative control. ROS generation in the nuclei was indicated by the production of the fluorescent ethidium, and assessed by measuring the nuclear fluorescent intensity using an ArrayScan VTI High-content screening (HCS) reader (Thermo Scientific, Waltham, Mass., USA). Images were acquired and data was analyzed by vHCS Scan software.

`Oc1ccc(C=Cc2c3c(cc4c2[C@@H](c2cc(O)cc(O)c2)[C@H](c2ccc(O)cc2)O4)O[C@H](c2ccc(O)cc2)[C@@H]3c2cc(O)cc(O)c2)cc1` [cis-suffruticosol D] was tested, and the “decrease of A549 cell motility” value ([1]; 10 μM) was 42.3%, the “decrease of A549 cell motility” value ([1]; 32 μM) was 42.0% and the “decrease of A549 cell motility” value ([1]; 100 μM) was 50.4%. For the same compound, the Hsp60 expression [2] was “significant down regulation”, the Hsp70 expression [2] was “significant down regulation” and the “X-linked inhibitor of apoptosis protein (XIAP) expression” value [2] was “significant down regulation”. The survivin expression [2] was “significant down regulation”, the IC50 ([3]; listed as cis-SD) was 17.1 ± 1 µM and the Selectivity ([3]; listed as cis-SD) was 15.8. The “increase of ROS levels” value ([4]; 10 μM) was 32.8%, the “increase of ROS levels” value ([4]; 32 μM) was 55.6% and the “increase of ROS levels” value ([4]; 100 μM) was 73.1%.
With `Oc1ccc(/C=C/c2c3c(cc4c2[C@@H](c2cc(O)cc(O)c2)[C@H](c2ccc(O)cc2)O4)O[C@H](c2ccc(O)cc2)[C@@H]3c2cc(O)cc(O)c2)cc1` [trans-suffruticosol D] the “decrease of A549 cell motility” value ([1]; 10 μM) was 40.7%, the “decrease of A549 cell motility” value ([1]; 32 μM) was 40.7% and the “decrease of A549 cell motility” value ([1]; 100 μM) was 54.9%. For the same compound, the Hsp60 expression [2] was “significant down regulation”, the Hsp70 expression [2] was “significant down regulation” and the “X-linked inhibitor of apoptosis protein (XIAP) expression” value [2] was “significant down regulation”. The survivin expression [2] was “significant down regulation”, the Selectivity ([3]; listed as trans-SD) was 12.3 and the IC50 ([3]; Homo sapiens) was 11.9 ± 1.2 µM. The “increase of ROS levels” value ([4]; 10 μM) was 32.8%, the “increase of ROS levels” value ([4]; 32 μM) was 34.6% and the “increase of ROS levels” value ([4]; 100 μM) was 87.2%.
